≈ marks a conversion by molar mass, not a printed value. Where “and” joins values, the source holds several entries; their conditions need not be identical. Equal values may be shown once. Entries after “also recorded” stand apart in the source; their conditions may differ. Read-outs that look alike come from different tables or passages of the source.

The target of one experiment is T1, MtMetAP1c (Mycobacterium tuberculosis, UniProt P9WK19).
T1 construct: made in house; host or cells: E. coli BL21
T1 sequence (P9WK19 whole entry): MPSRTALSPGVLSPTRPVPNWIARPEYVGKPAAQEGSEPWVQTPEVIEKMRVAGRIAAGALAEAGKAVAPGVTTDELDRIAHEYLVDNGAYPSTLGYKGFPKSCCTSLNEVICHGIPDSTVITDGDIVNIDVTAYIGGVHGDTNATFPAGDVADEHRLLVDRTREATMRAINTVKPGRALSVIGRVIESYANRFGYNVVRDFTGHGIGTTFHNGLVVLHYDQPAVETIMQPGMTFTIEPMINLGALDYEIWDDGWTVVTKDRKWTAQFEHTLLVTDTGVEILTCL
Kind of experiment: Coupled methionine-proline aminopeptidase assay (Met-Pro-pNA), IC50 determination. Type of experiment: biochemical, M. tuberculosis. Particulars: for inhibition of MtMetAP1c, in words: statement on MtMetAPs / both enzymes. On the procedure:
(§1) Determination of IC50 of Inhibitors of MtMetAPs and Clustering of Structural Classes of Inhibitors (ASDI-ISIS)
(§2) We determined the concentration needed for 50% inhibition in 96-well plates at final concentrations ranging from 100 μM-300 nM (for 81 compounds that were available in larger quantities). The total reaction volume was 50 μL and each reaction contained each MtMetAP1 respectively and 40 mM Hepes buffer (p.H 7.5), 100 mM NaCl, 100 μg/mL BSA, 0.1 U/mL ProAP, 1.5 μM CoCl2, 600 μM substrate (Met-Pro-pNA). The enzyme was pre-incubated with compounds for 20 min at room temperature followed by addition of substrate. The reaction was incubated at room temperature for 30 min and monitored at 405 nm on a spectrophotometer. The background hydrolysis was corrected and the data was fitted against the sigmoidal-dose response (variable slope) equation using GraphPad Prism software.

Another experiment addresses T2, MtMetAP1a (Mycobacterium tuberculosis, UniProt P9WK21).
T2 construct: made in house; host or cells: E. coli BL21 (DE3)
Described as above. The experiment is classed as biochemical, M. tuberculosis. Particulars: for inhibition of MtMetAP1a, in words: statement on MtMetAPs / both enzymes. On the procedure:
as §1, §2

A further experiment has as its system M. tuberculosis H37Rv. The experiment in a line: Minimum inhibitory concentration in replicating M. tuberculosis. Type of experiment: cell-based. Particulars: for MIC: Mycobacterium tuberculosis, H37RV, 336 h, read-out: M.I.C. (μg/mL) M. tuberculosis.
Experiment [1] relates to Aged-cultured M. tuberculosis H37Ra. The experiment in a line: microbe, parasite or virus in culture. The experiment is classed as cell-based. The settings on record: for MIC: Mycobacterium tuberculosis, H37RA, read-out: M.I.C. (μg/mL) Aged-cultured M. tuberculosis.
Setting [2] is: recombinant enzyme, 1.5 μM CoCl2, 600 μM Met-Pro-pNA, read-out: IC50 (μM) MtMetAP1a.

T2 sequence (P9WK21 whole entry): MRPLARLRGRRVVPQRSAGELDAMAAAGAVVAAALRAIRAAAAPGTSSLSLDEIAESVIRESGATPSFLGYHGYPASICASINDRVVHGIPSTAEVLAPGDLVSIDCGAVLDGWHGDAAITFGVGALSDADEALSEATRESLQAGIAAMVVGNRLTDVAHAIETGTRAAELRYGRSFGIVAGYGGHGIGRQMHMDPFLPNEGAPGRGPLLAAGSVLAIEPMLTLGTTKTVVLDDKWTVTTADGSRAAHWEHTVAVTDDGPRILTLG

For `COc1ccc2c(c1)-c1nc(NC=NO)sc1CC2` [Amidoxime 49, N′-hydroxy-N-(8-methoxy-4,5-dihydronaphtho[1,2-d]thiazol-2-yl)formimidamide], the “potency against MtMetAP1c when compared to 48” value on MtMetAP1c (relative to amidoxime 48) is reported as “two times less potent”. In the case of `ON=CNc1nc2c(s1)CCOc1cc3c(cc1-2)OCO3` [Amidoxime 58], the IC50 on MtMetAP1a (read-out: inhibitor of MtMetAP1a (potency in text)) worked out at 0.76 µM; at MtMetAP1c (read-out: inhibitor of MtMetAP1c (potency in text)) it was 0.06 µM. Also, the “improvement over the lead-like hit 48, MtMetAP1a” value at MtMetAP1a (relative to amidoxime 48) is 48 fold. Further, the “inhibition of MtMetAP1a, in words” value against MtMetAP1a was “very potent”. Besides, the “improvement over the lead-like hit 48, MtMetAP1c” value at MtMetAP1c (relative to amidoxime 48) came to 7 fold. Besides, the “inhibition of MtMetAP1c, in words” value at MtMetAP1c was “very potent”. As to `O=C1C(Cl)=C(N2C(=O)c3c(Cl)c(Cl)c(Cl)c(Cl)c3C2=O)C(=O)c2ccccc21` [Compound 2], the IC50 on MtMetAP1a (setting [2]) was found to be 4 ± 0.3 µM. Further, in the experiment on M. tuberculosis H37Rv, the “increase in MIC values relative to compounds 4 and 20” value was “about a two-fold increase”. The MIC worked out at 25 µg/mL (≈ 52.6 µM) with M. tuberculosis H37Rv and 23.8 µg/mL (≈ 50.1 µM) in experiment [1].

As for `O=C1C(Cl)=C(N2CCCCC2)C(=O)c2ccccc21` [Compound 3], the IC50 on MtMetAP1a (setting [2]) came out at 8 ± 1.3 µM. The MIC is over 25 µg/mL in the experiment on M. tuberculosis H37Rv and over 27.6 µg/mL in experiment [1]. In the case of `O=C1C(Cl)=C(Cl)C(=O)c2ccccc21` [Compound 4, 2,3-dichloro-1,4-naphthoquinone], at MtMetAP1a, the IC50 is 3.3 ± 0.3 µM. This molecule had an IC50 on MtMetAP1c of 6.6 ± 1.2 µM. Also, in the experiment with M. tuberculosis H37Rv, the “M.I.C. (μg/mL) M. tuberculosis” value worked out at 10 µg/mL and the MIC was 10 µg/mL (≈ 44 µM). Also, in experiment [1], the “effectiveness against the aged-cultured form compared with the replicating form” value was “equally effective” and the MIC is 5.7 to 11.4 µg/mL (≈ 25.1 to 50.2 µM).

`NC1=C(Cl)C(=O)c2ccccc2C1=O` [Compound 5]: on MtMetAP1a (setting [2]), the IC50 is over 100 µM. Turning to `O=C1C(Cl)=C(NCc2ccc(Cl)cc2)C(=O)c2ccccc21` [Compound 6], the IC50 on MtMetAP1a (setting [2]) is over 100 µM. For `CN1CCN(C2=C(Cl)C(=O)c3ccccc3C2=O)CC1` [Compound 7], the IC50 at MtMetAP1a (setting [2]) was over 100 µM. Same read-out and setting: the result for `O=C1C(Cl)=C(N2CCN(c3cccc(Cl)c3)CC2)C(=O)c2ccccc21` [Compound 8] reads over 100 µM. On the same count and under the same terms, the result for `O=C1C(Cl)=C(N2CCN(c3ccc(Cl)c(Cl)c3)CC2)C(=O)c2ccccc21` [Compound 9] reads over 100 µM; that for `Cc1ccc(Cl)cc1N1CCN(C2=C(Cl)C(=O)c3ccccc3C2=O)CC1` [Compound 10], over 100 µM. As to `O=C1C(Cl)=C(Nc2cccc(C(F)(F)F)c2)C(=O)c2ccccc21` [Compound 12], at MtMetAP1a (setting [2]), the IC50 is over 30 µM. Take `O=C1C(Cl)=C(Nc2cccc(F)c2)C(=O)c2ccccc21` [Compound 13]: at MtMetAP1a (setting [2]), the IC50 is over 30 µM. Regarding `COC(=O)c1ccc(NC2=C(Cl)C(=O)c3ccccc3C2=O)cc1` [Compound 14], on MtMetAP1a (setting [2]), the IC50 is over 30 µM.

For the molecule `CN(C)c1ccc(NC2=C(Cl)C(=O)c3ccccc3C2=O)cc1` [Compound 15], the IC50 on MtMetAP1a (setting [2]) is over 30 µM. As for `O=C1C(Cl)=C(Nc2ccccc2)C(=O)c2ccccc21` [Compound 16], the IC50 at MtMetAP1a (setting [2]) is over 50 µM. Turning to `Cc1cccc(NC2=C(Cl)C(=O)c3ccccc3C2=O)c1` [Compound 17], on MtMetAP1a (setting [2]), the IC50 was determined as 18.6 ± 6.1 µM. Take `COc1ccc(NC2=C(Cl)C(=O)c3ccccc3C2=O)cc1` [Compound 18]: on MtMetAP1a (setting [2]), the IC50 is 15.9 ± 0.6 µM. Turning to `Cc1cc(C)cc(NC2=C(Cl)C(=O)c3ccccc3C2=O)c1` [Compound 19], on MtMetAP1a (setting [2]), the IC50 came to 13.9 ± 1 µM. In the case of `O=C1C(Br)=C(Br)C(=O)c2ccccc21` [Compound 20, 2,3-dibromo-1,4-naphthoquinone], the IC50 at MtMetAP1a (setting [2]) was ~1 µM and 1.14 µM; at MtMetAP1c (recombinant enzyme, 1.5 μM CoCl2, 600 μM Met-Pro-pNA, read-out: IC50 (μM) MtMetAP1c) it was ~1 µM and 0.71 µM. Besides, the MIC with M. tuberculosis H37Rv was in the range of 10 to 25 µg/mL (≈ 31.7 to 79.1 µM). The “effectiveness against the aged-cultured form compared with the replicating form” value in experiment [1] is “equally effective”. As to `O=C1C(Oc2ccc(F)cc2)=C(Oc2ccc(F)cc2)C(=O)c2ccccc21` [Compound 21], at MtMetAP1a (setting [2]), the IC50 came out at 4.93 ± 0.2 µM. For the same molecule, in the experiment with M. tuberculosis H37Rv, the “increase in MIC values relative to compounds 4 and 20” value was “about a two-fold increase”; the MIC is over 25 µg/mL. Turning to `O=C1C(Cl)=C(Oc2ccc(F)cc2)C(=O)c2ccccc21` [Compound 22], the IC50 on MtMetAP1a (setting [2]) is 7.58 ± 0.28 µM. In addition, in the experiment with M. tuberculosis H37Rv, the “increase in MIC values relative to compounds 4 and 20” value is given as “about a two-fold increase”; the MIC is over 25 µg/mL. For the molecule `O=C1C=CC(=O)c2c(O)cccc21` [Compound 23], the IC50 at MtMetAP1a (setting [2]) is over 50 µM. With `CC1=CC(=O)c2c(O)cccc2C1=O` [Compound 24], the IC50 at MtMetAP1a (setting [2]) is over 50 µM. `O=C1C=C(O)C(=O)c2ccccc21` [Compound 25]: the IC50 at MtMetAP1a (setting [2]) is over 50 µM.

As to `CCCN(CCC)C1=C(Cl)C(=O)c2ccccc2C1=O` [Compound 26], the IC50 at MtMetAP1a (setting [2]) was over 50 µM. Take `O=C(NC1=C(Cl)C(=O)c2ccccc2C1=O)c1cc(C(F)(F)F)cc(C(F)(F)F)c1` [Compound 27]: at MtMetAP1a (setting [2]), the IC50 is over 50 µM.

On to `CC1=C(C/C=C(\C)CCCC(C)CCCC(C)C)C(=O)c2ccccc2C1=O` (centres unmarked) [Compound 28], for which the IC50 on MtMetAP1a (setting [2]) is over 50 µM. Same read-out and setting: the value for `CC1=CC(=O)c2ccccc2C1=O` [Compound 29] was over 50 µM. With `Oc1c(Br)cc(Cl)c2cccnc12` [Compound 69, 7-bromo-5-chloroquinolin-8-ol], the “inhibition of MtMetAP1a, in words” value against MtMetAP1a is “low micromolar range; also recorded: most potent”. Further, the “inhibition of MtMetAP1c, in words” value against MtMetAP1c was “low micromolar range; also recorded: most potent”.

Values taken from patent US10472315B2, “Inhibitors of methionine aminopeptidases and methods of treating disorders” (THE JOHNS HOPKINS UNIVERSITY, priority 2009, dated 2019).
